Assay results: patent US20040018150A1, “Prodrugs of phosphonate nucleotide analogues and methods for selecting and making same” (priority 2003, published 2004)
Read-outs that look alike come from different tables or passages of the source.

Columns and labels:
HIV-1 [1] = system: HIV-1
MT-2 cells [2] = assay: Cytotoxicity in MT-2 cells; conditions: cell culture
MT-2 cells [3] = system: MT-2 cells
HIV-1 [4] = conditions: anti-HIV-1; from Mulato and Cherrington, Antiviral Research 36, 91 (1997); cited from earlier work
HIV-1 [5] = assay: microbe, parasite or virus in culture
[6] = for PMPA AUC in PBMC Mean / PMPA AUC in Plasma Mean: dog, in vivo, po; for PBMC/Plasma Exposure Ratio / Prodrug in Plasma: dogs, oral, 10 mg-equivalent of PMPA/kg
Procedure: Formulations. The prodrugs were formulated as solutions in 50 mM citric acid within 0.5 hour prior to dose. All compounds used in the studies were synthesized by Gilead Sciences. The following lots were used:
Dose Administration and Sample Collection. The in-life phase of this study was conducted in accordance with the recommendations of the “Guide for the Care and Use of Laboratory Animals” (National Institutes of Health publication 86-23) and was approved by an Institutional Animal Care and Use Committee. Fasted male beagle dogs (10±2 kg) were used for the studies. Each drug was administered as a single dose by oral gavage (1.5-2 ml/kg). The dose was 10 mg-equivalent of PMPA/kg. For PBMCs, blood samples were collected at 0 (pre-dose), 2,8, and 24 h post-dose. […] Blood (1.0 ml) was processed immediately for plasma by centrifugation at 2,000 rpm for 10 min. Plasma samples were frozen and maintained at […] until analyzed.
Peripheral Blood Mononuclear Cell (PBMC) preparation. Whole blood (8 ml) drawn at specified time points was mixed in equal proportion with phosphate buffered saline (PBS), layered onto 15 ml of Ficoll-Paque solution (Pharmacia Biotech,) and centrifuged at 400×g for 40 min. PBMC layer was removed and washed once with PBS. Formed PMBC pellet was reconstituted in 0.5 ml of PBS, cells were resuspended, counted using hemocytometer and maintained at […] until analyzed. The number of cells multiplied by the mean single-cell volume was used in calculation of intracellular concentrations. […] Agents Chemother.
Determination of PMPA and Prodrugs in plasma and PBMCs. […] Derivatized samples were then evaporated to dryness and reconstituted in 100 μl of water for HPLC analysis.
Before intracellular PMPA could be determined by HPLC, the large amounts of adenine related ribonucleotides present in the PBMC extracts had to be removed by selective oxidation.
The HPLC system was comprised of a P4000 solvent delivery system with AS3000 autoinjector and F2000 fluorescence detector (Tlermo Separation, San Jose, Calif.). […] The mobile phases used were: A, 5% acetonitrile in 25 mM potassium phosphate buffer with 5 mM tetrabutyl ammonium bromide (TBABr), pH 6.0; B, 60% acetonitrile in 25 mM potassium phosphate buffer with 5 mM TBABr, pH 6.0. The flow rate was 2 ml/min and the column temperature was maintained at 35° C. by a column oven. The gradient profile was 90% A/10% B for 10 min for PMPA and 65%A/35%B for 10 min for the prodrug. […] Data was acquired and stored by a laboratory data acquisition system (PeakPro, Beckman, Allendale, N.J.).
Pharmacokinetic Calculations. […] The AUC values were calculated using the trapezoidal rule.

[7] = Stability in human plasma; format: in vitro ADME; conditions: 37° C., TBS pH 7.5
Procedure: (§1) The in vitro metabolism and stability of separated diastereomers were determined in PLCE, MT-2 extract and human plasma. A biological sample listed below, 80 μL, was transferred into a screw-capped centrifuge tube and incubated at 37° C. for 5 min. A solution containing 0.2 mg/mL of the test compound in a suitable buffer, 20 μL, was added to the biological sample and mixed. The reaction mixture, 20 μL, was immediately sampled and mixed with 60 μL of methanol containing 0.015 mg/mL of 2-hydroxymethylnaphthalene as an internal standard for HPLC analysis. The sample was taken as the time-zero sample. Then, at specific time points, the reaction mixture, 20 μL, was sampled and mixed with 60 μL of methanol containing the internal standard. The mixture thus obtained was centrifuged at 15,000 G for 5 min and the supernatant was analyzed with HPLC under the conditions described below.
(3) Human plasma (pooled normal human plasma from George King Biomedical Systems, Inc.)
In the study for human plasma, the test compound was dissolved in TBS. TBS (tris-buffered saline, Sigma) contains 0.05 M Tris, 0.0027 M potassium chloride, and 0.138 M sodium chloride. pH 7.5 at 37° C.
(§2) The HPLC analysis was carried out under the following conditions.

[8] = Stability / hydrolysis in MT-2 cell extract; format: in vitro ADME; conditions: 37° C., HEPES buffer pH 7.4
Procedure: as §1
(2) MT-2 cell extract was prepared from MT-2 cells according to the published procedure [A. Pompon, I. Lefebvre, J.-L. Imbach, S. Kahn, and D. Farquhar, “Antiviral Chemistry & Chemotherapy”, 5:91-98 (1994)] except for using HEPES buffer described below as the medium.
In the study for MT-2 cell extracts, the test compound was dissolved in HEPES buffer. HEPES buffer contains 0.010 M HEPES, 0.05 M potassium chloride, 0.005 M magnesium chloride, and 0.005 M dl-dithiothreitol. pH 7.4 at 37° C.
as §2

[9] = system: PLCE (porcine liver carboxyesterase); assay: in vitro; format: in vitro ADME; conditions: 37° C., PBS pH 7.4
Procedure: as §1
(1) PLCE (porcine liver carboxyesterase from Sigma, 160 u/mg protein, 21 mg protein/mL) diluted 20 fold with PBS (phosphated-buffered saline).
In the study for PLCE, the test compound was dissolved in PBS. PBS (phosphate-buffered saline, Sigma) contains 0.01 M phosphate, 0.0027 M potassium chloride, and 0.137 M sodium chloride. pH 7.4 at 37° C.
as §2

[10] = Incubation of radiolabeled PMPA prodrugs or PMPA in human whole blood; metabolites in plasma, PBMCs and RBCs; format: in vitro ADME; conditions: human, 1 h
Procedure: After 1 hour, plasma, red blood cells (RBCs) and peripheral blood mononuclear cells (PBMCs) were isolated and analyzed by HPLC with radiometric detection.

in vitro = conditions: human
[11] = activity of diastereomer A versus B
[12] = cell culture anti-HIV-1 activity, separated diastereomers and 1:1 mixtures
[13] = Human immunodeficiency virus 1, MT2

Question: Which Fold change (HIV-1 [1]; IC50 relative to PMPA) does the source give for CCOC(=O)[C@H](C)N[P@@](=O)(CO[C@H](C)Cn1cnc2c(N)ncnc21)Oc1ccccc1 (mixture of isomers) [Ala-ethyl, Phenyl PMPA, Ethyl L-Alanyl Amidate] here?
Answer: 250×

Question: What about the A/B activity (HIV-1 [1]; [11]) of the same compound?
Answer: 10×

Question: What about the IC50 (HIV-1 [1]; [12]) of the same compound?
Answer: 0.02 µM

Question: And the CC50 (MT-2 cells [2])?
Answer: 60 µM

Question: Which Fold change (HIV-1 [1]; IC50 relative to PMPA) does the source give for COC(=O)[C@H](C)NP(=O)(CO[C@H](C)Cn1cnc2c(N)ncnc21)Oc1ccccc1 (mixture of isomers) [Ala-methylester] here?
Answer: 200×

Question: What about the A/B activity (HIV-1 [1]; [11]) of the same compound?
Answer: 20×

Question: And the IC50 (HIV-1 [1]; [12])?
Answer: 0.025 µM

Question: And the CC50 (MT-2 cells [3])?
Answer: 80 µM

Question: Which results are given for COC(=O)C(C)NP(=O)(COC(C)Cn1cnc2c(N)ncnc21)Oc1ccccc1 (single isomer, unassigned) [GS-6957a]?
Answer: Fold change (HIV-1 [1]): 670×; IC50 (HIV-1 [1]): 0.0075 µM

Question: What does the source list for COC(=O)[C@H](C)NP(=O)(CO[C@H](C)Cn1cnc2c(N)ncnc21)Oc1ccccc1 (single isomer, unassigned) [GS-6957b]?
Answer: Fold change (HIV-1 [1]): 33×; IC50 (HIV-1 [1]): 0.15 µM

Question: Which Fold change (HIV-1 [1]) does the source give for COC(=O)C(Cc1ccccc1)NP(=O)(COC(C)Cn1cnc2c(N)ncnc21)Oc1ccccc1 (single isomer, unassigned) [GS-7003a] here?
Answer: 500×

Question: And the IC50 (HIV-1 [1])?
Answer: 0.01 µM

Question: What does the source list for COC(=O)C(Cc1ccccc1)NP(=O)(COC(C)Cn1cnc2c(N)ncnc21)Oc1ccccc1 (single isomer, unassigned) [GS-7003b]?
Answer: Fold change (HIV-1 [1]): 50×; IC50 (HIV-1 [1]): 0.1 µM

Question: With CCOC(=O)CNP(=O)(CO[C@H](C)Cn1cnc2c(N)ncnc21)Oc1ccccc1 (single isomer, unassigned) [GS-7335] as the compound, how does the Fold change (HIV-1 [1]) read?
Answer: 5×

Question: What about the IC50 (HIV-1 [1]) of the same compound?
Answer: 1 µM

Question: Which A/B activity (HIV-1 [1]) does the source give for CCOC(=O)[C@H](CC)NP(=O)(CO[C@H](C)Cn1cnc2c(N)ncnc21)Oc1ccccc1 (stereo partly drawn) [ABA-ethyl] here?
Answer: 7.5×

Question: And the Fold change (HIV-1 [1])?
Answer: 625×

Question: What about the IC50 (HIV-1 [1]) of the same compound?
Answer: 0.008 µM

Question: And the CC50 (MT-2 cells [2])?
Answer: > 100 µM

Question: With Cc1cn([C@H]2C[C@H](N=[N+]=[N-])[C@@H](CO)O2)c(=O)[nH]c1=O [AZT] as the compound, how does the IC50 (HIV-1 [4]) read?
Answer: 0.17 ± 0.08 µM

Question: Which IC50 (HIV-1 [4]) does the source give for Nc1ncnc2c1ncn2CCOCP(=O)(O)O [Adefovir (PMEA), 9-[2-(phosphonomethoxy)ethyl]adenine] here?
Answer: 13.4 ± 4.2 µM

Question: With CC(C)OC(=O)[C@H](C)NP(=O)(CO[C@H](C)Cn1cnc2c(N)ncnc21)Oc1ccccc1 (stereo partly drawn) [Ala-isopropyl] as the compound, how does the A/B activity (HIV-1 [1]; [11]) read?
Answer: 12×

Question: And the IC50 (HIV-1 [5]; [13])?
Answer: 0.01 µM

Question: For Nc1ccn([C@@H]2CS[C@H](CO)O2)c(=O)n1 [Compound 3TC], which IC50 (HIV-1 [4]) is on record?
Answer: 1.8 ± 0.25 µM

Question: For CCOC(=O)CNP(=O)(CO[C@H](C)Cn1cnc2c(N)ncnc21)Oc1ccccc1 (stereo partly drawn) [GS-7119], which “PMPA AUC in PBMC Mean” value [6] is on record?
Answer: 530

Question: What about the “PMPA AUC in Plasma Mean” value [6] of the same compound?
Answer: 6.11

Question: And the “PBMC/Plasma Exposure Ratio” value [6]?
Answer: 87

Question: And the “Prodrug in Plasma” value [6]?
Answer: YES

Question: What about the Fold change (HIV-1 [1]) of the same compound?
Answer: 100×

Question: And the IC50 (HIV-1 [1])?
Answer: 0.05 µM

Question: And the CC50 (MT-2 cells [2])?
Answer: > 100 µM

Question: With CCOC(=O)C(CC)NP(=O)(COC(C)Cn1cnc2c(N)ncnc21)Oc1ccccc1 (stereo not drawn) [GS-7342] as the compound, how does the “Human Plasma Stability (HP) product” value [7] read?
Answer: Met. Y

Question: And the “Human Plasma Stability (HP) t1/2” value [7]?
Answer: 103

Question: And the “MT-2 extract hydrolysis product” value [8]?
Answer: Met. X & PMPA

Question: And the PLCE hydrolysis product [9]?
Answer: Met. X

Question: What about the “PMPA AUC in PBMC Mean” value [6] of the same compound?
Answer: 1060

Question: And the “PMPA AUC in Plasma Mean” value [6]?
Answer: 4.6

Question: What about the “PBMC/Plasma Exposure Ratio” value [6] of the same compound?
Answer: 230

Question: What about the “Prodrug in Plasma” value [6] of the same compound?
Answer: YES

Question: What about the IC50 (HIV-1 [1]) of the same compound?
Answer: 0.004 µM

Question: And the Fold change (HIV-1 [1]; IC50 relative to PMPA)?
Answer: 1,250×

Question: What about the IC50 (HIV-1 [1]; read-out: HIV IC50) of the same compound?
Answer: 0.004 µM

Question: With Cc1c(O)cccc1C(=O)N[C@@H](CSc1ccccc1)[C@H](O)CN1C[C@H]2CCCC[C@H]2C[C@H]1C(=O)NC(C)(C)C [Nelfinavir] as the compound, how does the IC50 (HIV-1 [4]) read?
Answer: 0.006 ± 0.002 µM

Question: What does the source list for C[C@H](Cn1cnc2c(N)ncnc21)OCP(=O)(O)O [PMPA, 9-[2-(phosphonomethoxy)propyl]adenine]?
Answer: Metabolites (% of Total Peak Area): PMPApp [10]: 16%; Fold change (HIV-1 [1]): 1×; IC50 (HIV-1 [4]): 6.3 ± 3.3 µM; CC50 (in vitro): 6000 µM; IC50 (HIV-1 [5]; [13]): 5 µM; IC50 (HIV-1 [5]; Human immunodeficiency virus 1, MT2, read-out: HIV-1 Activity IC50): 5 µM

Question: What does the source list for COC(=O)[C@H](Cc1ccccc1)NP(=O)(CO[C@H](C)Cn1cnc2c(N)ncnc21)Oc1ccccc1 (stereo partly drawn) [Phe-methylester]?
Answer: A/B activity (HIV-1 [1]): 10×; Fold change (HIV-1 [1]): 170×; IC50 (HIV-1 [1]): 0.03 µM; CC50 (MT-2 cells [2]): 60 µM

Question: Which IC50 (HIV-1 [4]) does the source give for Cc1cn([C@H]2C=C[C@@H](CO)O2)c(=O)[nH]c1=O [d4T] here?
Answer: 8 ± 2.5 µM
